Assay results published in the kinase profiling compilation of Christmann-Franck et al. (2016).
Blank lines part the entries; values can stand above or below the compound they belong to.

Experiments:
Test in all cases: KINOMEscan competition binding
Details in all cases: compound 10.0 µM
CAMK2G (human) = CAMK2G (human) (UniProt Q13555)
HIPK1 (human) = HIPK1 (human) (UniProt Q86Z02)
DDR1 (human) = DDR1 (human) (UniProt Q08345)
TLK1 (human) = TLK1 (human) (UniProt Q9UKI8)
ADCK4 (human) = ADCK4 (human) (UniProt Q96D53)
MYO3B (human) = MYO3B (human) (UniProt Q8WXR4)
Sequence of MYO3B (human) (Q8WXR4 whole entry, looked up): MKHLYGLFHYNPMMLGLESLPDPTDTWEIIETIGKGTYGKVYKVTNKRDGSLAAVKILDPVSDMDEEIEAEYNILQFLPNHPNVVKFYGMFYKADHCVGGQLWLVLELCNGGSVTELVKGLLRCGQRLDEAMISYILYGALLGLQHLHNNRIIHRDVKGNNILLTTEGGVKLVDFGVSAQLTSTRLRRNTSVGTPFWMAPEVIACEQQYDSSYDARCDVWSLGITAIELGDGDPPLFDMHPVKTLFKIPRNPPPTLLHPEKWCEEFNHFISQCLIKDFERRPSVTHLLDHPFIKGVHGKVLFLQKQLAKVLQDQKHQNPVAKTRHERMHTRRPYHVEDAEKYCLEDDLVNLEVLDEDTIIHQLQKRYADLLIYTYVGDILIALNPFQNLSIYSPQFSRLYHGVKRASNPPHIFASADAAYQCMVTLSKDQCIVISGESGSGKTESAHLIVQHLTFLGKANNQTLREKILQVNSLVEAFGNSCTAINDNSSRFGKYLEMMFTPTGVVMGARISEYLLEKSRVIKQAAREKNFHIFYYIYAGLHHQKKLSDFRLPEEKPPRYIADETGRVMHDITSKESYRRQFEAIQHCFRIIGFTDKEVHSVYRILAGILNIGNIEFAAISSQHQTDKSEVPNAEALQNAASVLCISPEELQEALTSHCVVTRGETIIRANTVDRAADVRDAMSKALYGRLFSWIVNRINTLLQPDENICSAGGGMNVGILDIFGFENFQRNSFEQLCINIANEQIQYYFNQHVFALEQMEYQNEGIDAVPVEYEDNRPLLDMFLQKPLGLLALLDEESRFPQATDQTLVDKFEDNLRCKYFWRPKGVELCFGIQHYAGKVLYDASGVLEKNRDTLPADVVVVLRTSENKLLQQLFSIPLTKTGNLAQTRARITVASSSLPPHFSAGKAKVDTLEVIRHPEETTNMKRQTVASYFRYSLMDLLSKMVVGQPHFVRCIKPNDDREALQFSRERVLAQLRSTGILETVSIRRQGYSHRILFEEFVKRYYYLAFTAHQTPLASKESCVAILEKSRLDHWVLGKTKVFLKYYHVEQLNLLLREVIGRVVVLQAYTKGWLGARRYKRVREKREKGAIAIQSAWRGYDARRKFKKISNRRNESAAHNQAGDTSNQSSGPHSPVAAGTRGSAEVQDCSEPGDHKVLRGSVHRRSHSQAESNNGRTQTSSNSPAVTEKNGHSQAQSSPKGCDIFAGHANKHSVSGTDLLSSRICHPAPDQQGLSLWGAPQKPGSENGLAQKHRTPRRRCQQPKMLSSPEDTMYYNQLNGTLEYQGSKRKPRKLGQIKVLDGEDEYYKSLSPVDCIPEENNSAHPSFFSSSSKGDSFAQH

PTK2B (human) = PTK2B (human) (UniProt Q14289)
BRSK1 (human) = BRSK1 (human) (UniProt Q8TDC3)
[1] = system: EGFR (human), P00533 [G719S]
PRKAA2 (human) = PRKAA2 (human) (UniProt P54646)
Sequence of PRKAA2 (human) (P54646 whole entry, looked up): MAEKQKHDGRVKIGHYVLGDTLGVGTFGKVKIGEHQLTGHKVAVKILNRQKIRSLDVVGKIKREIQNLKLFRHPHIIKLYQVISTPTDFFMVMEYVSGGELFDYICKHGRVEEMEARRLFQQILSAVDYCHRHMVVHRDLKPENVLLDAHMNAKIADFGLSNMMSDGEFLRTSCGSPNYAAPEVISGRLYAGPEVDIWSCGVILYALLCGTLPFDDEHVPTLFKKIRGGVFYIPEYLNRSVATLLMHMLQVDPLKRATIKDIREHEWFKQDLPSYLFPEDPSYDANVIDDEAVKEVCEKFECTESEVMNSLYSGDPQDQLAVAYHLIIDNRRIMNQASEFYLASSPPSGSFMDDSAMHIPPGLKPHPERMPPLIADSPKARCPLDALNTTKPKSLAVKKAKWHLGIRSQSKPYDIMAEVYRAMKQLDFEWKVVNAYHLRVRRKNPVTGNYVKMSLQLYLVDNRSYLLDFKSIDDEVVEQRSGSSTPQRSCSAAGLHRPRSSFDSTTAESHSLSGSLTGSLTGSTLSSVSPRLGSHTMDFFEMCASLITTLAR

RIOK2 (human) = RIOK2 (human) (UniProt Q9BVS4)
PTK6 (human) = PTK6 (human) (UniProt Q13882)
RPS6KA1 KD1 (human) = RPS6KA1 KD1 (human) (UniProt Q15418)
AXL (human) = AXL (human) (UniProt P30530)
MKNK1 (human) = MKNK1 (human) (UniProt Q9BUB5)
MAPKAPK5 (human) = MAPKAPK5 (human) (UniProt Q8IW41)
NTRK1 (human) = NTRK1 (human) (UniProt P04629)
AKT3 (human) = AKT3 (human) (UniProt Q9Y243)
CAMK2A (human) = CAMK2A (human) (UniProt Q9UQM7)
Sequence of CAMK2A (human) (Q9UQM7 whole entry, looked up): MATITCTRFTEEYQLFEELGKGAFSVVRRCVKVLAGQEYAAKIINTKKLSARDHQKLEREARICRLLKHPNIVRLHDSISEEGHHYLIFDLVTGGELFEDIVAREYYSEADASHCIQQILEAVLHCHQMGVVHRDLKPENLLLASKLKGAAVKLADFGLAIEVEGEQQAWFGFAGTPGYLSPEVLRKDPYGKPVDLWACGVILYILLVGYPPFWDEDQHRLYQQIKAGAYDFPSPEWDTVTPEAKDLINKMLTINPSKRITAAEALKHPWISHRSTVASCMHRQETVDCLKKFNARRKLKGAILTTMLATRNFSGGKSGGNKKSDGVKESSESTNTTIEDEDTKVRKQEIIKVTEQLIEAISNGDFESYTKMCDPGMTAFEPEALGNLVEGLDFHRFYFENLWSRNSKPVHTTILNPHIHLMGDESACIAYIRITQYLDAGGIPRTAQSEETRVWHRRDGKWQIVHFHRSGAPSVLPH

[2] = target: TYK2 JH2 pseudokinase (human) (UniProt P29597)
TYRO3 (human) = TYRO3 (human) (UniProt Q06418)
[3] = system: ABL1 (human), P00519 [E255K]
FLT1 (human) = FLT1 (human) (UniProt P17948)
HCK (human) = HCK (human) (UniProt P08631)
EPHA8 (human) = EPHA8 (human) (UniProt P29322)
MAP3K5 (human) = MAP3K5 (human) (UniProt Q99683)
WEE2 (human) = WEE2 (human) (UniProt P0C1S8)
PAK2 (human) = PAK2 (human) (UniProt Q13177)
STK17A (human) = STK17A (human) (UniProt Q9UEE5)
ROCK2 (human) = ROCK2 (human) (UniProt O75116)
CSNK2A2 (human) = CSNK2A2 (human) (UniProt P19784)
PRKCD (human) = PRKCD (human) (UniProt Q05655)
DCLK3 (human) = DCLK3 (human) (UniProt Q9C098)
MAP2K1 (human) = MAP2K1 (human) (UniProt Q02750)
NTRK3 (human) = NTRK3 (human) (UniProt Q16288)
CDK11B (human) = CDK11B (human) (UniProt P21127)
MAPK8 (human) = MAPK8 (human) (UniProt P45983)
CLK3 (human) = CLK3 (human) (UniProt P49761)
BTK (human) = BTK (human) (UniProt Q06187)
CDK15 (human) = CDK15 (human) (UniProt Q96Q40)
[4] = system: FLT3 (human), P36888 [ITD]
CAMK1D (human) = CAMK1D (human) (UniProt Q8IU85)

Sequence of CAMK2G (human) (Q13555 whole entry, looked up): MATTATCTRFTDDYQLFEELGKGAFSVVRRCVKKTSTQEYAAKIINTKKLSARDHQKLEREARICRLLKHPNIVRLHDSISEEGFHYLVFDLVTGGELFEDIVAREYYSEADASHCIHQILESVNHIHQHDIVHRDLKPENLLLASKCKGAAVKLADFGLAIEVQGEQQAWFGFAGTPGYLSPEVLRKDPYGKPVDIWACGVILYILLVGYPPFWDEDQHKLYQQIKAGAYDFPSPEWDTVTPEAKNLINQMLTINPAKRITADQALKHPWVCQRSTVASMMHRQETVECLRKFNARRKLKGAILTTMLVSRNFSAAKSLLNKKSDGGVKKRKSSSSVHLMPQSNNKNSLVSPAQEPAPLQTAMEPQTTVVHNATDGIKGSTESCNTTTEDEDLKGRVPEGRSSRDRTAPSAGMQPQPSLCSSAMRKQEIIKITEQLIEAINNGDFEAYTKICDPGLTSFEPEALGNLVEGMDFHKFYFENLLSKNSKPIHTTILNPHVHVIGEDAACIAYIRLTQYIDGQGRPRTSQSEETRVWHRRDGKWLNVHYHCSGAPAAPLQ
Sequence of DDR1 (human) (Q08345 whole entry, looked up): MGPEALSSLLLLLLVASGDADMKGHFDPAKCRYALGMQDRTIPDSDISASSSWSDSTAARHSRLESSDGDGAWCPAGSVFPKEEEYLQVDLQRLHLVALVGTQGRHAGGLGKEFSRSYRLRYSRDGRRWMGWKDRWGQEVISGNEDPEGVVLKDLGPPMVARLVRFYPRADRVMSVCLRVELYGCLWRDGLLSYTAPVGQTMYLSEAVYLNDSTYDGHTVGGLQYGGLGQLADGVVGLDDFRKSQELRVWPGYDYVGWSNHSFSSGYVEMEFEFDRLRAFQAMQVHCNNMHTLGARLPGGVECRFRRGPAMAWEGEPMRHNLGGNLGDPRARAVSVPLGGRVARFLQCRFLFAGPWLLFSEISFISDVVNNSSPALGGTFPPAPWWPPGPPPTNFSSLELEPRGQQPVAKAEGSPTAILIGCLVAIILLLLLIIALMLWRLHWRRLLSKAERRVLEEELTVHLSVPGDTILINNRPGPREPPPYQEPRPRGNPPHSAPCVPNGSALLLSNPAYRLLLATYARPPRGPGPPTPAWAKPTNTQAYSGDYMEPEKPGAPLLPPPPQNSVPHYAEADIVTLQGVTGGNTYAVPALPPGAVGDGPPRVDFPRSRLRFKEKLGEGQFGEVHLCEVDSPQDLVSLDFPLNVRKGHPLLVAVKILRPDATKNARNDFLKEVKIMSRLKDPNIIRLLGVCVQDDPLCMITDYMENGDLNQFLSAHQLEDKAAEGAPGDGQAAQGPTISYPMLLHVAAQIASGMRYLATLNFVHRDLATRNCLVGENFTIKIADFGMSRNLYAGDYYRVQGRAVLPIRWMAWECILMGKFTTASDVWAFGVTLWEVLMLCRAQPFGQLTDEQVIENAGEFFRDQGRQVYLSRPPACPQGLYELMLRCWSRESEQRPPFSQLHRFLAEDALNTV
Sequence of HIPK1 (human) (Q86Z02 whole entry, looked up): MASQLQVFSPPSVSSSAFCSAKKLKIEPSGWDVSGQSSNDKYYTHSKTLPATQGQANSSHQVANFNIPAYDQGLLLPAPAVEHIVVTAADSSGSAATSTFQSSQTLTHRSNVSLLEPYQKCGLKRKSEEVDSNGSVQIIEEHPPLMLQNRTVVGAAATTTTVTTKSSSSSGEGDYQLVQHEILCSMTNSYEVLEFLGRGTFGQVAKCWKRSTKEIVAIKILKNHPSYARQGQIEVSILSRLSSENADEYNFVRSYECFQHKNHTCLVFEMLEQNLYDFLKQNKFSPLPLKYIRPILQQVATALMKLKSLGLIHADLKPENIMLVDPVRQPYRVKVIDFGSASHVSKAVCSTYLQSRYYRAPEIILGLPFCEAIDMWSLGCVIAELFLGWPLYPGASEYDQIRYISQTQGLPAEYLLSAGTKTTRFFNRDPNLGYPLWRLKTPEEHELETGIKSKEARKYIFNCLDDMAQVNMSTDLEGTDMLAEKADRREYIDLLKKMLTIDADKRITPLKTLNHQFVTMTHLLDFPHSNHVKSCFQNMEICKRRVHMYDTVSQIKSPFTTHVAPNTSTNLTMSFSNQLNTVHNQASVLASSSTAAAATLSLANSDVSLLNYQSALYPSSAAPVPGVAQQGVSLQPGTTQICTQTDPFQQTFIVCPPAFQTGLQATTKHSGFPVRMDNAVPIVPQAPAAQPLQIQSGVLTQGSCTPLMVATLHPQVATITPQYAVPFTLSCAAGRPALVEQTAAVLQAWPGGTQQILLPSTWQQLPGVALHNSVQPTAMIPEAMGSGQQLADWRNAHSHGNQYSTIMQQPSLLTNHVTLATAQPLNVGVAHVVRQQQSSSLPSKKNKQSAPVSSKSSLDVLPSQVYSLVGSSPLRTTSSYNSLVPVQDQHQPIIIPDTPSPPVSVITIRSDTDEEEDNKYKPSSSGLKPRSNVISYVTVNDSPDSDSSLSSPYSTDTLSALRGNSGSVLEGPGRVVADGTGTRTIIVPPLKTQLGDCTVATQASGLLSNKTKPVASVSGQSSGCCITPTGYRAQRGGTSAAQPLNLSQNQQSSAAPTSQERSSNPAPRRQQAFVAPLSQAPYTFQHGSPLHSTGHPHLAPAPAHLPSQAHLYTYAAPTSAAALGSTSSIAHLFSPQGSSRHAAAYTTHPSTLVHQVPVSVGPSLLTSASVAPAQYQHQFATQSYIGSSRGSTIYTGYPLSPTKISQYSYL

kinase still bound, per cent of control (CAMK2G (human)): 2% | kinase still bound, per cent of control (HIPK1 (human)): 40% | kinase still bound, per cent of control (DDR1 (human)): 0.05% | kinase still bound, per cent of control (TLK1 (human)): 40% | kinase still bound, per cent of control (ADCK4 (human)): 0% | kinase still bound, per cent of control (MYO3B (human)): 0.6% | kinase still bound, per cent of control (PTK2B (human)): 0% | kinase still bound, per cent of control (BRSK1 (human)): 1.2% | kinase still bound, per cent of control [1]: 9.6% | kinase still bound, per cent of control (PRKAA2 (human)): 0.15% | kinase still bound, per cent of control (RIOK2 (human)): 5.3% | kinase still bound, per cent of control (PTK6 (human)): 0.15% | kinase still bound, per cent of control (RPS6KA1 KD1 (human)): 0.25% | kinase still bound, per cent of control (AXL (human)): 0.1% | kinase still bound, per cent of control (MKNK1 (human)): 40% | kinase still bound, per cent of control (MAPKAPK5 (human)): 40% | kinase still bound, per cent of control (NTRK1 (human)): 12% | kinase still bound, per cent of control (AKT3 (human)): 40% | kinase still bound, per cent of control (CAMK2A (human)): 1.2% | kinase still bound, per cent of control [2]: 11% | kinase still bound, per cent of control (TYRO3 (human)): 24% | kinase still bound, per cent of control [3]: 19% | kinase still bound, per cent of control (FLT1 (human)): 2.8% | kinase still bound, per cent of control (HCK (human)): 0.35% | kinase still bound, per cent of control (EPHA8 (human)): 40% | kinase still bound, per cent of control (MAP3K5 (human)): 40% | kinase still bound, per cent of control (WEE2 (human)): 40% | kinase still bound, per cent of control (PAK2 (human)): 30% | kinase still bound, per cent of control (STK17A (human)): 5.9% | kinase still bound, per cent of control (ROCK2 (human)): 0.95% | kinase still bound, per cent of control (CSNK2A2 (human)): 40% | kinase still bound, per cent of control (PRKCD (human)): 28% | kinase still bound, per cent of control (DCLK3 (human)): 0% | kinase still bound, per cent of control (MAP2K1 (human)): 3.6% | kinase still bound, per cent of control (NTRK3 (human)): 40% | kinase still bound, per cent of control (CDK11B (human)): 40% | kinase still bound, per cent of control (MAPK8 (human)): 5.2% | kinase still bound, per cent of control (CLK3 (human)): 3% | kinase still bound, per cent of control (BTK (human)): 0%
Structure (SMILES): COc1cc(N2CCC(N3CCN(C)CC3)CC2)ccc1Nc1ncc(Cl)c(Nc2ccccc2S(=O)(=O)C(C)C)n1

Structure (SMILES): CCN1CCN(Cc2ccc(NC(=O)c3ccc(C)c(/C=C/c4cnc(Nc5cc(N6CCNCC6)nc(C)n5)cn4)c3)cc2C(F)(F)F)CC1
kinase still bound, per cent of control (CAMK2G (human)): 100% | kinase still bound, per cent of control (HIPK1 (human)): 34% | kinase still bound, per cent of control (DDR1 (human)): 0% | kinase still bound, per cent of control (TLK1 (human)): 100% | kinase still bound, per cent of control (ADCK4 (human)): 93% | kinase still bound, per cent of control (MYO3B (human)): 67% | kinase still bound, per cent of control (PTK2B (human)): 36% | kinase still bound, per cent of control (BRSK1 (human)): 91% | kinase still bound, per cent of control [1]: 5.4% | kinase still bound, per cent of control (PRKAA2 (human)): 14% | kinase still bound, per cent of control (RIOK2 (human)): 85% | kinase still bound, per cent of control (PTK6 (human)): 91% | kinase still bound, per cent of control (RPS6KA1 KD1 (human)): 100% | kinase still bound, per cent of control (AXL (human)): 26% | kinase still bound, per cent of control (MKNK1 (human)): 89% | kinase still bound, per cent of control (CDK15 (human)): 53% | kinase still bound, per cent of control [4]: 5.6% | kinase still bound, per cent of control (MAPKAPK5 (human)): 80% | kinase still bound, per cent of control (NTRK1 (human)): 0.45% | kinase still bound, per cent of control (AKT3 (human)): 81% | kinase still bound, per cent of control (CAMK2A (human)): 100% | kinase still bound, per cent of control [2]: 100% | kinase still bound, per cent of control (TYRO3 (human)): 37% | kinase still bound, per cent of control [3]: 0.3% | kinase still bound, per cent of control (CAMK1D (human)): 100% | kinase still bound, per cent of control (FLT1 (human)): 27% | kinase still bound, per cent of control (HCK (human)): 0.4% | kinase still bound, per cent of control (EPHA8 (human)): 0.35% | kinase still bound, per cent of control (MAP3K5 (human)): 100% | kinase still bound, per cent of control (WEE2 (human)): 83% | kinase still bound, per cent of control (PAK2 (human)): 69% | kinase still bound, per cent of control (STK17A (human)): 11% | kinase still bound, per cent of control (ROCK2 (human)): 51% | kinase still bound, per cent of control (CSNK2A2 (human)): 72% | kinase still bound, per cent of control (PRKCD (human)): 100% | kinase still bound, per cent of control (DCLK3 (human)): 87% | kinase still bound, per cent of control (MAP2K1 (human)): 35% | kinase still bound, per cent of control (NTRK3 (human)): 1% | kinase still bound, per cent of control (CDK11B (human)): 78% | kinase still bound, per cent of control (MAPK8 (human)): 24% | kinase still bound, per cent of control (CLK3 (human)): 100% | kinase still bound, per cent of control (BTK (human)): 0.2%

Structure (SMILES): CCOc1cc(N2CCC(N3CCCCC3)CC2)ccc1Nc1nc(Nc2ccccc2S(=O)(=O)C(C)C)c2cn[nH]c2n1
kinase still bound, per cent of control (CAMK2G (human)): 71% | kinase still bound, per cent of control (HIPK1 (human)): 82% | kinase still bound, per cent of control (DDR1 (human)): 100% | kinase still bound, per cent of control (TLK1 (human)): 75% | kinase still bound, per cent of control (ADCK4 (human)): 29% | kinase still bound, per cent of control (MYO3B (human)): 18% | kinase still bound, per cent of control (PTK2B (human)): 5% | kinase still bound, per cent of control (BRSK1 (human)): 100% | kinase still bound, per cent of control [1]: 100% | kinase still bound, per cent of control (PRKAA2 (human)): 100% | kinase still bound, per cent of control (RIOK2 (human)): 76% | kinase still bound, per cent of control (PTK6 (human)): 10% | kinase still bound, per cent of control (RPS6KA1 KD1 (human)): 1.8% | kinase still bound, per cent of control (AXL (human)): 100% | kinase still bound, per cent of control (MKNK1 (human)): 53% | kinase still bound, per cent of control (CDK15 (human)): 100% | kinase still bound, per cent of control [4]: 100% | kinase still bound, per cent of control (MAPKAPK5 (human)): 100% | kinase still bound, per cent of control (NTRK1 (human)): 72% | kinase still bound, per cent of control (AKT3 (human)): 100% | kinase still bound, per cent of control (CAMK2A (human)): 34% | kinase still bound, per cent of control [2]: 63% | kinase still bound, per cent of control (TYRO3 (human)): 100% | kinase still bound, per cent of control [3]: 67% | kinase still bound, per cent of control (CAMK1D (human)): 1% | kinase still bound, per cent of control (FLT1 (human)): 100% | kinase still bound, per cent of control (HCK (human)): 100% | kinase still bound, per cent of control (EPHA8 (human)): 100% | kinase still bound, per cent of control (MAP3K5 (human)): 100% | kinase still bound, per cent of control (WEE2 (human)): 100% | kinase still bound, per cent of control (PAK2 (human)): 82% | kinase still bound, per cent of control (STK17A (human)): 100% | kinase still bound, per cent of control (ROCK2 (human)): 25% | kinase still bound, per cent of control (CSNK2A2 (human)): 94% | kinase still bound, per cent of control (PRKCD (human)): 100% | kinase still bound, per cent of control (DCLK3 (human)): 100% | kinase still bound, per cent of control (MAP2K1 (human)): 100% | kinase still bound, per cent of control (NTRK3 (human)): 54% | kinase still bound, per cent of control (CDK11B (human)): 100% | kinase still bound, per cent of control (MAPK8 (human)): 4.3% | kinase still bound, per cent of control (CLK3 (human)): 50% | kinase still bound, per cent of control (BTK (human)): 32%

kinase still bound, per cent of control (HIPK1 (human)): 6.2% | kinase still bound, per cent of control (DDR1 (human)): 0.05% | kinase still bound, per cent of control (MYO3B (human)): 4.8% | kinase still bound, per cent of control (PTK2B (human)): 2.1% | kinase still bound, per cent of control [1]: 14% | kinase still bound, per cent of control (PTK6 (human)): 28% | kinase still bound, per cent of control (CDK15 (human)): 6% | kinase still bound, per cent of control [4]: 0.7% | kinase still bound, per cent of control [2]: 0% | kinase still bound, per cent of control [3]: 1.2% | kinase still bound, per cent of control (CAMK1D (human)): 6.2% | kinase still bound, per cent of control (FLT1 (human)): 1.6% | kinase still bound, per cent of control (HCK (human)): 0.4% | kinase still bound, per cent of control (EPHA8 (human)): 0.1% | kinase still bound, per cent of control (NTRK3 (human)): 3.8% | kinase still bound, per cent of control (CDK11B (human)): 0.35% | kinase still bound, per cent of control (MAPK8 (human)): 0%
Structure (SMILES): CCN1CCN(Cc2ccc(NC(=O)c3ccc(C)c(Oc4ccnc5[nH]ccc45)c3)cc2C(F)(F)F)CC1
